{"source": "patent US20090318465A1", "about": "“METHOD FOR IDENTIFYING COMPOUNDS THAT ACT AS INSULIN-SENSITIZERS” (priority 2006, published 2009)", "key": {"3T3 L1 fibroblasts": {"system": "3T3 L1 fibroblasts", "test": "Adipogenesis assay (phenotype-based primary screen)", "assay_type": "cell-based, mouse", "conditions": "test compound 20 μg/ml plus 5 μg/ml insulin, 8 days", "description": "The phenotype-based assay used for screening the test compounds in the first screening step is an adipogenesis assay. Any of a variety of adipogenesis assays can be employed. Suitable adipogenesis assays can employ fibroblasts 3T3-L1, which can be derived from mouse and insulin, for example, of either human, porcine or bovine origin. The test compounds can be dissolved at a suitable concentration (e.g., 20 μg/ml) in a suitable solvent such as DMSO. Fibroblasts can be grown in 96-well plates containing sufficient cells, for example 5×10^4 cells/well, that are cultured in nutrient medium along with 5 μg/ml of insulin. After 3 days of incubation in CO2 incubators at 37° C., the nutrient medium with compounds is removed and fresh medium is exposed to the cells. After 8 days, the ability of compounds to potentiate insulin effect on transformation into fat filled cells, adipocytes, was assessed by observing under an inverted microscope. The lipid droplets are stained with Oil red O and percentage of stained cells is determined (e.g., estimated).\nCompounds that caused the formation of adipocytes by more than 5 times the vehicle are termed as actives.\nThe assay was designed as in the reference J. Bio. […]\nAt the end of 8 days, the number of fat filled adipocytes formed in each well was assessed by observing under microscope. […]"}, "[1]": {"system": "dexamethasone treated insulin resistant 3T3-L1 adipocytes", "test": "Insulin resistance assay (IR assay), 14C-2-deoxyglucose uptake", "assay_type": "cell-based, mouse", "excerpt": "A suitable insulin resistance assay includes screening of compounds which act as insulin-sensitizers using chronically dexamethasone treated 3T3-L1 adipocytes as an in vitro model. This is a known model for studying insulin signaling and insulin resistance. Chronically dexamethasone treated 3T3-L1 adipocytes serve as a valid in vitro model of insulin resistance resembling diabetes patients.\nIn an embodiment, the method according to the present invention includes screening compounds identified as active in the phenotype-based assay against dexamethasone treated insulin resistant adipocytes. For example, the method can include applying actives from the insulin sensitivity assay at a concentration of 1-10 μM to the insulin resistant adipocytes for 1-4 days. The adipocytes were previously prepared for the assay by long term exposure to dexamethasone, for example, at 100 nM for about 24-48 hours.\nThe method can also include determining whether the compounds enhance glucose uptake in the insulin resistant adipocytes by more than 50% above that enhanced by insulin. The method can then include selecting compounds as active, if they caused 1.5 fold or more increase in glucose uptake compared to insulin treated adipocytes. Glucose uptake can be measured by any of a variety of known methods, such as measuring uptake of ^14C-labeled 2-deoxyglucose, a non metabolisable analogue of D-Glucose.\nThe assay was designed as in the reference, British Journal of Pharmacology, 130, 351-58, 2000, which is incorporated herein by reference for disclosure of the assay.\nThe solution of test compound (10 μM/mL) was prepared in DMSO.\nRosiglitazone (0.1 μM in DMSO) was used as standard.\nDifferentiation into adipocytes was induced by known methods as described below. (J. Biol. Chem., 260, 2646-2652, 1985, which is incorporated herein by reference for disclosure of the induction).\nCulture medium containing […] 1-methyl-3-isobutylxanthine (IBMX), 0.25 μM dexamethasone, 5 μg/ml insulin (bovine/human), 10 mM HEPES buffer and fetal bovine serum (FBS) 10% by volume in Dulbecco's modified Eagle's medium (DMEM) was used for differentiation.\n3T3 L1 fibroblasts were seeded in 24-well or 6-well plates at a density of 0.5-2×10^4 cells/well and were allowed to reach maximal confluency.\nThe confluent fibroblasts were exposed to culture medium for 2 days. After this period, fresh culture medium (DMEM) containing only insulin was used, 10% FBS was added and cultured for 4 days with change of medium every 2 days. After 7 days the cultures received DMEM containing 10% FBS with no exposure to insulin. By the end of 8-10 days, more than 95% of the cells have become differentiated into adipocytes.\nThe mature adipocytes were exposed to dexamethasone, 100 nM added in ethanol, in culture medium and incubated for 2 days. On the third day, solution of test compound was added along with 100 nM dexamethasone containing medium for 4 days with a change in medium after every 2 days. Vehicle control contained 1% v/v of DMSO. Rosiglitazone was used as a standard and was added at a concentration of 0.1 μM in DMSO, along with 100 nM dexamethasone containing medium for 4 days with a change in medium after every 2 days. After a total period of 6 days, the cells were processed for glucose uptake as follows.\nThe insulin resistant adipocytes were exposed to serum-free DMEM containing 0.1% bovine serum albumin for 3-4 hours at 37° C. in CO2 atmosphere. The test compound was also present during this period. After 3-4 hours, the medium was aspirated and replaced with Kreb's Ringer phosphate (KRP) buffer at pH 7.4 and with human/porcine insulin, 200 nM. The cells were incubated for 30 minutes at 37° C. At the end of 30 minutes, 0.05 or 0.1 μCi of ^14C-2-deoxyglucose was added to each well of either 24-well or 6-well plates respectively and was incubated for exactly 5 minutes. After exactly 5 minutes, the plates were transferred to ice trays and medium was rapidly aspirated. […]"}}, "data": [{"smiles": "CCOC(=O)c1ccc(C(=N)NC(=O)OC)cc1C", "note": "[Compound 9, 4-(Imino-methoxycarbonylaminomethyl)-2-methyl-benzoic acid ethyl ester]", "values": [{"measurement": "activity in adipogenesis assay (active = adipocytes more than 5 times the vehicle)", "setting": "3T3 L1 fibroblasts", "value": "inactive"}, {"measurement": "activity in insulin resistance assay (cut off 1.5-fold of vehicle)", "setting": "[1]; insulin resistant adipocytes, glucose uptake", "value": "inactive"}, {"measurement": "% of Rosiglitazone (comparison with Rosiglitazone)", "setting": "[1]; test compound 10 μM/mL versus Rosiglitazone 0.1 μM", "value": "NIL"}, {"measurement": "Fold vehicle (fold activity over vehicle)", "setting": "[1]; test compound 10 μM/mL, glucose uptake with 200 nM insulin, vehicle = 1.0", "value": "1.01 ± 0.27"}]}]}
